“Also recorded” adds a separate entry of the source.
How the values were obtained:
[1] = read-out: IC50 (stated for reference drug); cited from earlier work
Hep3B cells = test: Induction of apoptosis, Annexin V/7-AAD staining; format: cell-based, human; settings: example 20-2
Method: (§1) AGS cells (gastric carcinoma cell line) (American Type Culture Collection; ATCC) were seeded in a 12-well plate at a density of 1×10^5 cells/well, and then treated with 10 uM of aMTD/SD-fused SOCS3 for 14 hours. Cancer cell death was analyzed by Annexin V analysis. Annexin V/7-Aminoactinomycin D (7-AAD) staining was performed using flow cytometry according to the manufacturer's guidelines (BD Pharmingen, San Diego, Calif., USA). Briefly, cells were washed three times with ice-cold PBS. The cells were then resuspended in 100 μl of binding buffer and incubated with 1 μl of 7-AAD and 1 μl of annexin V-PE for 30 min in the dark at 37° C. Flow cytometric analysis was immediately performed using a guava easyCyte™ 8 Instrument (Merck Millipore, Darmstadt, Germany).
(§2) The effect of inducing apoptosis of Chang liver cells was measured in the same manner as in Example 11-2, except that as target cell lines, normal Chang liver cells and hepatocellular carcinoma cell lines, Hep3B, HepG2, Huh7, and SK-HEP-1 were used, and as a reference drug, 5-FU® (IC50: 40 μM) was used.

Huh7 cells [2] = test: Induction of apoptosis, Annexin V/7-AAD staining; format: cell-based, human; settings: example 20-2
Method: as §1, §2

SK-Hep-1 cells = test: Induction of apoptosis, Annexin V/7-AAD staining; format: cell-based, human; settings: example 20-2
Method: as §1, §2

HepG2 cells [3] = test: Induction of apoptosis, Annexin V/7-AAD staining; format: cell-based, human
Method: as §1
Annexin V/7-Aminoactinomycin D (7-AAD) staining was performed using flow cytometry according to the manufacturer's guidelines (BD Pharmingen, San Diego, Calif., USA). Briefly, 1×10^6 cells were washed three times with ice-cold PBS. The cells were then resuspended in 100 μl of binding buffer and incubated with 1 μl of 7-AAD and 1 μl of […] for 30 min in the dark at 4° C. Flow cytometric analysis was immediately performed using a guava easyCyte™ 8 Instrument (Merck Millipore, Darmstadt, Germany). In this regard, Cisplatin® (IC50: 30 μM) was used as a reference drug.
as §2

[4] = tested on: HCCs (Hep3B, HepG2, Huh7 and SK-HEP-1); test: Inhibition of cell cycle progression (PI staining, flow cytometry); format: cell-based, human; settings: reference drugs
Method: To further determine the effect of iCP-SOCS3 on the tumorigenicity of hepatocellular carcinoma cells, we subsequently investigated whether iCP-SOCS3 regulates cell cycle progression in HCCs (Hep3B, HepG2, Huh7 and SK-HEP-1).
HCCs and normal cells were treated with 10 uM protein (Non-CP-SOCS3 (HS3B) and iCP-SOSC3 (HM165S3B)) for 8 hrs. After the treatment, cells were washed twice with cold PBS and re-suspended in 1 ml cold PBS, fixed in cold 70% ethanol, washed with cold PBS twice and re-suspended in PI master mix (PI 10 ug/ml (SIGMA, USA), 50 ug/ml RNase A (Invitrogen, USA) in staining buffer) at a final cell density of 2×10^5 cell/ml. The cell mixtures were incubated 30 min in the dark at 4° C. Flow cytometric analysis was immediately performed using a guava easyCyte™ 8 Instrument (Merck Millipore, Darmstadt, Germany).

HepG2 tumor = test: Anti-tumor activity in cell-derived xenograft model; settings: iCP-SOCS3 IV 50 mg/kg every day; Cisplatin IP 4 mg/kg twice a week; 3 weeks
Method: Female Balb/c^nu/nu mice (5-week-old, Doo-Yeol Biotech Co. Ltd. Korea) were subcutaneously implanted with Hep3B2.1-7 tumor block (1 mm^3) into the left back side of the mouse. […] Tumor size was monitored by measuring the longest (length) and shortest dimensions (width) once a day with a dial caliper, and tumor volume was calculated as width2×length×0.5.
Then, tumor volumes were examined. […] Then, tumor volumes were examined.

Huh7 cells [5] = test: Induction of apoptosis, TUNEL assay; format: cell-based, human; settings: 10 μM, 24 hr, 2% fetal bovine serum
Method: Apoptotic cells were analyzed using terminal dUTP nick-end labeling (TUNEL) assay with In Situ Cell Death Detection kit TMR red (Roche, 4056 Basel, Switzerland). Cells were treated for 24 hr with 10 μM HS3B or HM165S3B proteins with 2% fetal bovine serum and apoptotic cells were visualized by TUNEL staining. Treated cells were washed with cold PBS two times, fixed in 4% paraformaldehyde (PFA, Junsei, Tokyo, Japan) for 1 hr at room temperature, and incubated in 0.1% Triton X-100 for 2 min on the ice. Cells were washed with cold PBS twice, and treated TUNEL reaction mixture for 1 hr at 37° C. in dark, washed cold PBS three times and observed by fluorescence microscopy (Nikon, Tokyo, Japan). Cisplatin® (IC50: 30 μM) was used for reference drug.

HepG2 cells [6] = test: Cell-permeability of FITC-labeled SOCS3 recombinant proteins in hepatocellular carcinoma cells (flow cytometry); format: cell-based, human; settings: 10 μM FITC-labeled protein, 1 hr, 37° C.
Method: HepG2 cells (ATCC, Manassas, Va., USA) were seeded in a 12 well plate, grown to 90% confluence. Cells were treated with 10 μM FITC-labeled iCP-SOCS3 recombinant proteins and cultivated for 1 hr at 37° C.
After cultivation, the cells were treated with proteinase K (10 ug/mL, SIGMA, USA) and washed three times with ice-cold PBS (Phosphate-buffered saline, Hyclone, USA) to remove surface-bound proteins, and internalized proteins were measured by flow cytometry (FlowJo cytometric analysis software, Guava, Millipore, Darmstadt, Germany). Untreated cells (gray) and equimolar concentration of unconjugated FITC (FITC only, green)-treated cells were served as control (FIG. 57).

[7] = Solubility/yield of SOCS3 recombinant proteins expressed and purified from E. coli; format: physicochemical; settings: expressed and purified in E. coli
Method: Thereafter, the recombinant protein gene-introduced E. coli was inoculated in 7 ml of LB medium, and then incubated at 37° C. overnight. The E. coli was inoculated in 700 ml of LB medium and incubated at 37° C. until OD600 reached 0.6. To this culture medium, 0.6 mM of isopropyl-β-D-thiogalactoside (IPTG, Gen Depot, USA) was added as a protein expression inducer, followed by further incubation at 37° C. for 3 hours. This culture medium was centrifuged at 4° C. and 8,000 rpm for 10 minutes and a supernatant was discarded to recover a cell pellet. The cell pellet thus recovered was suspended in a lysis buffer (100 mM NaH2PO4, 10 mM Tris-HCl, 8 M Urea, pH 8.0), and cells were disrupted by sonication (on/off time: 30 sec/30 sec, on time 2 hours, amplify 40%), and centrifuged at 15,000 rpm for 30 min to obtain a soluble fraction and an insoluble fraction.
After purification, the proteins were put in a SnakeSkin Dialysis Tubing bag (pore size: 10000 mw, Thermo scientific, USA) and then they were dialyzed by physiological buffer (DMEM). The strain lysate where protein expression was not induced, the strain lysate where protein expression was induced by addition of IPTG, and purified proteins were loaded on SDS-PAGE to analyze protein expression characteristics and expression levels (FIGS. 19 and 20).
Solubility of aMTD/SD-fused SOCS3 proteins was scored on a 5 point scale compared with that of SOCS3 proteins lacking the solubilization domain.

STAT3 = test: Inhibition of IFN-γ-induced STAT phosphorylation in PANC-1 cells (western blot), STAT3; format: cell-based; settings: PANC-1, 10 ng/ml IFN-γ 15 min, 10 μM protein 2 hrs
Method: (§3) PANC-1 Cells (KCLB, Seoul, South Korea) were treated with 10 ng/ml IFN-γ (R&D systems, Abingdon, UK) for 15 min and treated with either DMEM (vehicle) or 10 μM aMTD/SD-fused SOCS3 recombinant proteins for 2 hrs. The cells were lysed in RIPA lysis buffer (Biosesang, Seongnam, Korea) containing proteinase inhibitor cocktail (Roche, Indianapolis, Ind., USA), incubated for 15 min at 4° C., and centrifuged at 13,000 rpm for 10 min at 4° C. Equal amounts of lysates were separated on 10% SDS-PAGE gels and transferred to a nitrocellulose membrane. The membranes were blocked using 5% skim milk in TBST and for western blot analysis incubated with the following antibodies: anti-phospho-STAT1 (Cell Signaling Technology, USA) and anti-phospho-STAT3 (Cell Signaling Technology, USA), then HRP conjugated anti-rabbit secondary antibody (Santacruz).
as §3, with “(vehicle) or 1, 5, 10 μM” for “(vehicle) or 10 μM”, “following antibodies: anti-phospho-STAT3 (Cell” for “following antibodies: anti-phospho-STAT1 (Cell Signaling Technology, USA) and anti-phospho-STAT3 (Cell”

TNF-α = test: LPS/IFN-γ-induced cytokine secretion in peritoneal macrophages (cytometric bead array), TNF-α; format: cell-based, C3H/HeJ mice; settings: 10 μM protein; IFN-γ and LPS
Method: (§4) Peritoneal macrophages were obtained from C3H/HeJ mice (Doo-Yeol Biotech Co. Ltd. Korea) Peritoneal macrophages were incubated with 10 μM SOCS3 recombinant proteins (1:HS3, 2:HM165S3, 3:HM165S3A and 4:HM165S3B, respectively) for 1 hr at 37° C. and then stimulated them with LPS (Lipopolysaccharide)(500 ng/ml) and/or IFN-γ (100 U/ml) without removing iCP-SOCS3 proteins for 3, 6, or 9 hrs. The culture media were collected, and the extracellular levels of cytokine (TNF-α, IL-6) were measured by a cytometric bead array (BD Pharmingen, San Diego, Calif., USA) according to the manufacturer's instructions.

NIH3T3 cells [8] = test: Intracellular delivery and localization of FITC-labeled SOCS3 recombinant proteins (confocal microscopy); format: cell-based, mouse; settings: 10 μM FITC-labeled SOCS3 protein, 1 hour, 37° C.
Method: (§5) To examine cell-permeability of SOCS3 recombinant protein, SOCS3 recombinant proteins were conjugated to 5/6-fluorescein isothiocyanate (FITC). RAW 264.7 (KCLB, Seoul, South Korea) (FIG. 20) or NIH3T3 cells (KCLB, Seoul, South Korea) (FIG. 21) were treated with 10 μM FITC-labeled SOCS3 recombinant proteins and cultivated for 1 hr at 37° C.
(§6) After cultivation, the cells were washed three times with ice-cold PBS (Phosphate-buffered saline, Hyclone, USA) and treated with proteinase K (10 μg/mL, SIGMA, USA) to remove surface-bound proteins, and internalized proteins were measured by flow cytometry (FlowJo cytometric analysis software, Guava, Millipore, Darmstadt, Germany). Untreated cells (gray) and equimolar concentration of unconjugated FITC (FITC only, green)-treated cells were served as control (FIG. 20). Each of NIH3T3 cells was incubated for 1 hour at 37° C. with 10 μM FITC-labeled SOCS3 protein. For nuclear staining, a mixture of […] Mounting Medium (Vector laboratories, Burlingame, Calif.) and DAPI (4′,6-diamidino-2-phenylindole) was added to NIH3T3 cells, and visualized using a confocal laser microscope (LSM700, Zeiss, Germany) (FIG. 21).

IL-6 = test: LPS/IFN-γ-induced cytokine secretion in peritoneal macrophages (cytometric bead array), IL-6; format: cell-based, C3H/HeJ mice; settings: 10 μM protein; IFN-γ and LPS
Method: as §4

RAW 264.7 cells [9] = test: Cell-permeability of FITC-labeled SOCS3 recombinant proteins (flow cytometry); format: cell-based; settings: 10 μM FITC-labeled protein, 1 hr, 37° C.
Method: as §5
In this regard, RAW 264.7 cells were cultured in a DMEM medium containing 10% fetal bovine serum (FBS, Hyclone, USA) and […] of 1% penicillin/streptomycin (Hyclone, USA).
as §6

STAT1 = test: Inhibition of IFN-γ-induced STAT phosphorylation in PANC-1 cells (western blot), STAT1; format: cell-based; settings: PANC-1, 10 ng/ml IFN-γ 15 min, 10 μM protein 2 hrs
Method: as §3

RAW 264.7 cells [10] = test: Quantitative cell-permeability of FITC-labeled aMTD- or rPeptide-fused CRA recombinant proteins (flow cytometry); format: cell-based; settings: RAW 264.7 cells, 10 μM FITC-labeled recombinant protein, 1 hour
Outline: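 Uptake of fluorescently labeled, peptide-fused cargo proteins was quantified by flow cytometry (Guava, Millipore) and analyzed in FlowJo software. RAW 264.7 cells received 10 μM FITC-labeled protein for 1 hour at 37° C., were rinsed three times with cold PBS, and were trypsinized with 0.25% tripsin/EDTA for 20 minutes at 37° C. to remove bound protein before measurement. Permeability was expressed relative to reference proteins.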

NIH3T3 cells [11] = test: Intracellular delivery and localization of aMTD-/rPeptide-fused CRA recombinant proteins (confocal laser scanning microscopy); format: cell-based, mouse; settings: 10 μM FITC-labeled protein, 1 hour, 37
Method: NIH3T3 cells were exposed to 10 μM of FITC-labeled protein for 1 hour at 37, and nuclei were counterstained with DAPI. Then, cells were examined by confocal laser scanning microscopy (FIG. 7). […] The intracellular localization of the fluorescent signal was determined by confocal laser scanning microscopy (LSM700, Zeiss, Germany; FIGS. 7 and 8).

Question: With O=c1[nH]cc(F)c(=O)[nH]1 [5-FU, reference compound] as the compound, how does the IC50 [1] read?
Answer: 40 µM

Question: What about the “induction of apoptosis (Annexin V), Hep3B” value (Hep3B cells) of the same compound?
Answer: hardly induced apoptosis

Question: And the “induction of apoptosis (Annexin V), Huh7” value (Huh7 cells [2])?
Answer: hardly induced apoptosis

Question: And the “induction of apoptosis (Annexin V), SK-HEP-1” value (SK-Hep-1 cells)?
Answer: hardly induced apoptosis

Question: And the “induction of apoptosis (Annexin V), HepG2” value (HepG2 cells [3]; example 20-2)?
Answer: hardly induced apoptosis

Question: What about the “amount of subG1” value [4] of the same compound?
Answer: hardly increased the amount of subG1

Question: For N.N.[Cl][Pt][Cl] [Cisplatin, reference compound], which IC50 [1] is on record?
Answer: 30 µM

Question: What about the “body weight / adverse effects” value (HepG2 tumor) of the same compound?
Answer: remarkable weight loss

Question: And the “induction of apoptosis (TUNEL), Huh7” value (Huh7 cells [5])?
Answer: hardly induced apoptosis

Question: And the “induction of apoptosis (Annexin V), HepG2, dose dependence” value (HepG2 cells [3]; example 20-1)?
Answer: hardly induced apoptosis

Question: And the “amount of subG1” value [4]?
Answer: hardly increased the amount of subG1

Question: Which results are given for “HS3: His-tagged SOCS3 recombinant protein lacking an aMTD and a SD [reference compound]”?
Answer: transduction into HepG2 cells (HepG2 cells [6]): did not appear to enter cells; solubility (tendency to precipitate) [7]: largely insoluble; also recorded: less soluble; IFN-γ-induced phosphorylation of STAT3 (STAT3): STAT phosphorylation was readily detected; effect on TNF-α secretion (TNF-α): unchanged; intracellular delivery and localization (NIH3T3 cells [8]): did not appear to enter cells; effect on IL-6 secretion (IL-6): unchanged; cell-permeability (protein uptake) (RAW 264.7 cells [9]): did not appear to enter cells; IFN-γ-induced phosphorylation of STAT1 (STAT1): STAT phosphorylation was readily detected

Question: With YYNQSTCGGQCY [rP38, reference compound] as the compound, how does the “Relative Ratio to aMTD AVE” value (RAW 264.7 cells [10]) read?
Answer: 0.3±0.04 fold

Question: And the “intracellular delivery and localization (internalized fluorescence signal)” value (NIH3T3 cells [11])?
Answer: did not show internalized fluorescence signal

From patent US10385103B2, “Cell-permeable (ICP)-SOCS3 recombinant protein and uses thereof” (CELLIVERY THERAPEUTICS, INC., priority 2014, dated 2019)
